Laboratory results taken from patent US20210113529A1, “MEDICINE FOR PREVENTING OR TREATING OPHTHALMIC DISEASE ASSOCIATED WITH ENHANCED INTRAOCULAR NEOVASCULARIZATION AND/OR INTRAOCULAR VASCULAR PERMEABILITY” (KYOTO UNIVERSITY, priority 2018, published 2021).

Legend:
[1] = test system: laser-induced choroidal neovascularization (CNV) model; assay: Laser-induced CNV model: area of CNV in choroidal flat mount; type: in vivo, mice; details: Day 14
Procedure: After fluorescence fundus photography had been performed as described above in the section (1), 0.5 mL of fluorescein isothiocyanate dextran (FITC-dextran; 20 mg/mL, Sigma-Aldrich) was administered into the tail vein of the mice. The mice were euthanized by cervical dislocation, and the eyeball was extirpated. The extirpated eyeball was fixed in a 4% paraformaldehyde phosphate buffer for 12 hours. After that, the cornea and lens were excised under a microscope, and the remaining vitreous artery was removed with forceps. Further, the retina was removed, and the choroid was notched 8 points and embedded with Fluoromount (Diagnostic BioSystems) in a flat state to generate a choroidal flat mount specimen. The choroidal flat mount was photographed using a confocal laser scanning microscope (FLUOVIEW FV10i; Olympus, Tokyo, Japan). Next, on the basis of the photographed image, the CNV was encircled using analysis software OLYMPUS FLUOVIEW FV10i (Olympus), and the area thereof was determined as the area of CNV (μm^2). All analyses were performed in a blinded manner. After fluorescence fundus photography had been performed as described above in the section (1), a choroidal flat mount specimen was generated by the same method as in Example 1. The choroidal flat mount was photographed using an all-in-one fluorescence microscope (BZ-X710; Keyence, Osaka, Japan). Next, on the basis of the photographed image, the CNV was encircled using image editing software Image J, and the area thereof was determined as the area of CNV (μm^2). All analyses were performed in a blinded manner.

[2] = test system: lymphocytes in the peripheral blood; assay: Lymphocyte count in peripheral blood, C57BL/6J strain mice; type: in vivo; details: C57BL/6J mice, 24 hours from final administration
Procedure: Seven-week-old mice (Japan SLC, Inc., C57BL/6J strain) were repeatedly orally administered Compound 1 suspended in a vehicle (0.5% MC solution) at a dose of 0.003 mg/kg, 0.01 mg/kg, 0.03 mg/kg, 0.1 mg/kg, 0.3 mg/kg, or 1 mg/kg (in terms of free form) once daily for 14 days in the same manner as in Example 1. A control was administered only the vehicle (vehicle group). Experiments were performed using 5 mice in each group. At 24 hours from the final administration, blood was collected from the abdominal vena cava under isoflurane anesthesia using a heparin-treated syringe, and was mixed with ethylenediaminetetraacetic acid dipotassium salt (EDTA.2K) (1 mg). The lymphocyte count in the collected blood was measured using XT-2000iv (Sysmex Corporation).

[3] = test system: lymphocytes in the peripheral blood; assay: Lymphocyte count in peripheral blood, ddy strain mice; type: in vivo; details: 0.03 mg/kg orally twice at an interval of 12 hours, 24 hours from second administration
Procedure: Next, 7-week-old mice (Japan SLC, Inc., ddy strain) were orally administered Compound 1 suspended in a vehicle (0.5% MC solution) at a dose of 0.03 mg/kg or 0.3 mg/kg (in terms of free form) twice at an interval of 12 hours in the same manner as in Example 2. A control was administered only the vehicle (vehicle group). Experiments were performed using 6 mice in each group. After 24 hours from the second administration, blood was collected from the abdominal vena cava under isoflurane anesthesia using a heparin-treated syringe, and was mixed with EDTA.2K (1 mg). The lymphocyte count in the collected blood was measured using XT-2000iv (Sysmex Corporation).

[4] = test system: retinal vein occlusion (RVO) model; assay: RVO model, intravitreal administration: thickness of INL; type: in vivo, mice; details: 0.8 ng, 8 ng or 80 ng per eye immediately after laser irradiation, 1 day after irradiation
Procedure: Eight-week-old mice (Japan SLC, Inc., ddy strain) were anesthetized by intramuscularly administering 10 mL/kg of a mixed anesthetic solution diluted so as to contain ketamine (120 mg/kg) and xylazine (6 mg/kg). After that, 0.15 mL of rose bengal (20 mg/kg; WAKO) was administered into the tail vein, and a vein three head systems away from the optic nerve head of the right eye of the mice was irradiated with a laser to occlude a retinal vein. For the occlusion, the laser irradiation was performed 10 times to 15 times per vein. For the laser irradiation, an attachment of a fundus photography apparatus Micron 4 (Phoenix Research Laboratories, Inc., Pleasanton, Calif., USA) was used (wavelength: 532 nm, spot size: 50 μm, irradiation time: 5,000 ms, laser output: 50 mW). Three veins were occluded per eye, and it was confirmed with photographs of the fundus that the laser-irradiated veins had been completely occluded. […]
After 1 day from the laser irradiation, the mice were euthanized by cervical dislocation, the eyeball was extirpated, and histological evaluation was performed by a hematoxylin-eosin staining method. In addition, the thickness of the retinal inner nuclear layer (INL) was measured at intervals of 240 μm on both sides, i.e., ear side and nose side from the center of the optic nerve head. […]

S1P1 receptor = S1P1 receptor (Homo sapiens, UniProt P21453); details: GTP[γ35S] binding assay; report PLoS One, 2014, 9(10), e110819; read-out: EC50 for S1P1 receptor agonist activity; cited from earlier work
Chain of S1P1 receptor (P21453 whole entry): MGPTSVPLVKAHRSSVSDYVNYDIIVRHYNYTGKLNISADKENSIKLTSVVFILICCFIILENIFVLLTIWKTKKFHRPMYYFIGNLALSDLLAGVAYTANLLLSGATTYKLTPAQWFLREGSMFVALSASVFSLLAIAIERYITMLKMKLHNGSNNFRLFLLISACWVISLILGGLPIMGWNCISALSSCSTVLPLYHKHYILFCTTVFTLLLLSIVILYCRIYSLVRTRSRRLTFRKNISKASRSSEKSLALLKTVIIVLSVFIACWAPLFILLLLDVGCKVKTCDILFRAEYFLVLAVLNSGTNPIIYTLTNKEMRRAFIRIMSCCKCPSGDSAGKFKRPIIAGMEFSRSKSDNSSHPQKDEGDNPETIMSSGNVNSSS

S1P3 receptor = S1P3 receptor (Homo sapiens, UniProt Q99500); details: GTP[γ35S] binding assay; report PLoS One, 2014; cited from earlier work
Chain of S1P3 receptor (Q99500 whole entry): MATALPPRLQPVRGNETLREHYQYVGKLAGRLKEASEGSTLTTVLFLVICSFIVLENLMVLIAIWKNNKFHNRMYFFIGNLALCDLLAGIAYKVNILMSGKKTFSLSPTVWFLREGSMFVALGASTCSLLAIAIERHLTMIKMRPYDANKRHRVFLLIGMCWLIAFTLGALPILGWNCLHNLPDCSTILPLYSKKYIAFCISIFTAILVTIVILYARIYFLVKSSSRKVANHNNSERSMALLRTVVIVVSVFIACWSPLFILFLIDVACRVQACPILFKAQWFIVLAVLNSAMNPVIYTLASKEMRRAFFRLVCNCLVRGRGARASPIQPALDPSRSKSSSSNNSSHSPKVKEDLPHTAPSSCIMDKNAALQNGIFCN

## C[C@H](Oc1ccc(-c2nc(-c3ccc4[nH]cnc4c3)no2)cc1C(F)(F)F)C(F)(F)F.Cl [Compound 1, 5-{5-[3-(trifluoromethyl)-4-{[(2S)-1,1,1-trifluoropropan-2-yl]oxy}phenyl]-1,2,4-oxadiazol-3-yl}-1H-benzimidazole monohydrochloride]
[1]; 0.03 mg/kg orally once daily
  area of CNV: a decrease in area of CNV
[1]; 0.3 mg/kg orally once daily
  area of CNV: a significant decrease was found
  reduction ratio of the area of CNV: 34%
[2]; 0.03 mg/kg orally once daily for 14 days
  lymphocytes in the peripheral blood: not found to have a significant action
[2]; 0.1 mg/kg or more orally once daily for 14 days
  lymphocytes in the peripheral blood: significantly decreased lymphocytes in the peripheral blood
[3]
  lymphocytes in the peripheral blood: did not cause a significant decrease in lymphocytes in the peripheral blood
[4]
  thickening of the INL (retinal edema): ameliorated the thickening of the INL
S1P1 receptor
  EC50: 7.4 nM
S1P3 receptor
  EC50 for S1P3 receptor agonist activity as compared to that for the S1P1 receptor: ≥ 100 fold
